Our source for the EC50 values is patent US10913727B2, “Modulators of the integrated stress pathway” (Calico Life Sciences LLC, priority 2016, dated 2021).

Bounds are passed on as bounds.

The subject of this assay is HEK293T cells carrying the ATF4 luciferase reporter. Nature of the assay: ATF4-Luc assay, in vitro model of Vanishing Cell White Matter Disease (VWMD). It counts as cell-based. Particulars: Homo sapiens, HEK-293T, 1 μg/mL tunicamycin, 7 hours, One Glo luminescence. In outline: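 Reporter cells were stably generated by retroviral transduction and puromycin selection, then seeded at 30,000 cells/well. Next day, cells received 1 μg/mL tunicamycin with 200 nM test compound for 7 h, and luciferase luminescence was read with a one-step reagent. Values reported as EC50.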
The EC50 is the concentration needed to bring the measured effect to its halfway point. As for `O=C(COc1ccc(Cl)c(F)c1)NC12CCC(NC(=O)c3cccc[n+]3[O-])(CC1)CC2O` (stereo not shown) [Compound 944, N-{4-[2-(4-chloro-3-fluorophenoxy)acetamido]-3-hydroxybicyclo[2.2.2]octan-1-yl}-1-oxo-1λ^5-pyridine-2-carboxamide], the half-maximal effective concentration (EC50) was greater than 2000 nM.

For `O=C(COc1ccc(Cl)c(F)c1)NC12CCC(NC(=O)c3cccc(CO)n3)(CC1)CC2O` (stereo not shown) [Compound 945, N-{4-[2-(4-chloro-3-fluorophenoxy)acetamido]-3-hydroxybicyclo[2.2.2]octan-1-yl}-6-(hydroxymethyl)pyridine-2-carboxamide], the EC50 is greater than 2000 nM.

Take `O=C(CCCc1cccc(Cl)c1)NC12CC(NC(=O)c3cnc(C(F)F)cn3)(C1)C2` [Compound 946, N-{3-[4-(3-chlorophenyl)butanamido]bicyclo[1.1.1]pentan-1-yl}-5-(difluoromethyl)pyrazine-2-carboxamide]: the EC50 was greater than 2000 nM.

Take `O=C(COCc1cccc(Cl)c1)NC12CC(NC(=O)c3cnc(C(F)F)cn3)(C1)C2` [Compound 947, N-(3-{2-[(3-chlorophenyl)methoxy]acetamido}bicyclo[1.1.1]pentan-1-yl)-5-(difluoromethyl)pyrazine-2-carboxamide]: the EC50 was greater than 2000 nM.
